Test results reported in publication PMC10663244 (Investigational New Drugs, 2023).
Like-named read-outs stand apart in the source and are kept apart here.

Columns and labels:
[1] = system: FGFR2 fusion/rearrangement-positive cholangiocarcinoma (CCA); set-up: method as in PMID 29182496; settings: 108 previously-treated patients; cited from earlier work
UC = system: UC; set-up: method as in PMID 31340094; settings: 99 patients with UC; cited from earlier work
[2] = system: FGF/FGFR1-3 altered, advanced solid tumors; assay: Antitumor activity per RECIST v1.1 by investigator, phase I; format: in vivo, human (Chinese patients); settings: 12 patients
Description: Tumor response was assessed by investigator according to Response Evaluation Criteria in Solid Tumors (RECIST) v1.1 every 9 weeks after first dosing.
(§1) Tumor was assessed per RECIST v1.1 by investigator at baseline, and every 9 weeks after first dosing. […] Adverse events (AEs) were graded per CTCAE v5.0. […] Sponsor-defined clinically notable TEAEs included hyperphosphatemia, hypophosphatemia, nail toxicities, and serous retinal detachment.
(§2) All statistical analyses were conducted using SAS version 9.4 (or higher).
The Clopper-Pearson method was used to calculate the 95% confidence interval (CI) of ORR and DCR. The Kaplan–Meier method and the Brookmeyer and Crowley method were used to estimate PFS.

[3] = cited from earlier work
[4] = Safety: treatment-emergent adverse events (CTCAE v5.0), phase I; format: in vivo
Description: as §1, §2

[5] = Western population, steady state, cited from earlier work
serum phosphate [6] = settings: Western population; cited from earlier work
advanced malignancies = settings: Japanese population, cited from earlier work
serum phosphate [7] = assay: Pharmacodynamics: serum phosphate level as PD marker for FGFR inhibition; format: in vivo, human (Chinese patients)
Description: Serum phosphate level was defined as the PD marker in the study for assessing FGFR inhibition. […] Serum phosphate levels were measured using phosphomolybdate UV method (measuring range: 0.31‑20.0 mg/dL) by the central laboratory (Q2 Solutions [Beijing] Co., Ltd.).
Serum samples were analyzed for the concentration of serum phosphate using phosphomolybdate UV method by the central laboratory (Q2 Solutions (Beijing) Co., Ltd.). The concentration of phosphomolybdate formed is directly proportional to the inorganic phosphate concentration and is measured photometrically. Phosphorus quantification was determined in human plasma on Roche/Hitachi cobas c systems. Measuring range was 0.10‑6.46 mmol/L (0.31‑20.0 mg/dL). Reagents: Phosphate (Inorganic) ver.2 (250 tests) Catalouge:03183793 122.

[8] = Plasma pharmacokinetics of pemigatinib (LC–MS/MS, non-compartmental), phase I; format: in vivo, human (Chinese patients); settings: for Tmax: read-out: tmax, median (min, max)
[9] = system: FGF/FGFR alterations and advanced malignancies; settings: Western patients, cited from earlier work
[10] = any grade, Japanese patients; cited from earlier work
[11] = 13.5 mg oral QD, C1D14 (steady state), N=12

Structure (SMILES): CCN1CCN(c2ccc(Nc3cc(N(C)C(=O)Nc4c(Cl)c(OC)cc(OC)c4Cl)ncn3)cc2)CC1 [Infigratinib]
- ORR [1]: 23.1%

Structure (SMILES): COc1cc(OC)cc(N(CCNC(C)C)c2ccc3ncc(-c4cnn(C)c4)nc3c2)c1 [erdafitinib]
- Overall objective response rate (ORR) (UC): 40%

Structure (SMILES): CCN1C(=O)N(c2c(F)c(OC)cc(OC)c2F)Cc2cnc3[nH]c(CN4CCOCC4)cc3c21 [pemigatinib]
- Objective response rate (ORR) ([2]; 13.5 mg QD 2-weeks-on/1-week-off, confirmed): 16.7%
- Best overall confirmed response: Partial response [2]: 2 (16.7%) n (%)
- Objective response rate ([2]; 95% CI […] - 48.4%): 2 (16.7%) n (%)
- Incidence of hyperphosphataemia ([3]; any grade, Western patients): 75%
- Incidence of hyperphosphataemia ([3]; grade ≥ 3, Western patients): 2.3%
- TEAEs leading to treatment interruption/discontinuation or death ([4]; 12 patients): No TEAEs led to treatment interruption/discontinuation or death
- Anaemia ([4]; human, in vivo): 6 (50.0) n (%)
- Blood alkaline phosphatase increased ([4]; human, in vivo): 0 n (%)
- Blood bilirubin increased ([4]; human, in vivo): 0 n (%)
- Blood lactate dehydrogenase increased ([4]; human, in vivo): 0 n (%)
- Decreased appetite ([4]; human, in vivo): 6 (50.0) n (%)
- Diarrhoea ([4]; human, in vivo): 0 n (%)
- Gamma-glutamyltransferase increased ([4]; human, in vivo): 1 (8.3) n (%)
- Hypoalbuminaemia ([4]; human, in vivo): 6 (50.0) n (%)
- Hypochloraemia ([4]; human, in vivo): 0 n (%)
- Incidence of anaemia ([4]; human, in vivo): 50.0%
- Incidence of arthralgia ([4]; human, in vivo): 8.3%
- Incidence of decreased appetite ([4]; human, in vivo): 50.0%
- Incidence of gamma-glutamyltransferase increased ([4]; human, in vivo): 8.3%
- Incidence of hypercalcaemia ([4]; human, in vivo): 8.3%
- Incidence of hypoalbuminaemia ([4]; human, in vivo): 50.0%
- Incidence of hypophosphatemia (clinically-notable TEAE) ([4]; human, in vivo): 25.0%
- Incidence of lipase increased ([4]; human, in vivo): 8.3%
- Incidence of nail discolouration (clinically-notable TEAE) ([4]; human, in vivo): 8.3%
- Incidence of nail disorder (clinically-notable TEAE) ([4]; human, in vivo): 16.7%
- Incidence of nail toxicity (clinically-notable TEAE) ([4]; human, in vivo): 16.7%
- Incidence of proteinuria ([4]; human, in vivo): 8.3%
- Low density lipoprotein increased ([4]; human, in vivo): 0 n (%)
- Patients with dose reduction due to proteinuria ([4]; human, in vivo): 8.3%
- Patients with grade ≥ 3 TEAEs ([4]; human, in vivo): 25.0%
- Patients with grade ≥ 3 treatment-related AEs ([4]; human, in vivo): 16.7%
- Proteinuria ([4]; human, in vivo): 1 (8.3) n (%)
- Weight decreased ([4]; human, in vivo): 0 n (%)
- Ocular toxicity (vision blurred of grade 1) ([4]; in vivo): only one patient experienced ocular toxicity
- Serious TEAEs ([4]; in vivo): No serious TEAEs occurred
- AUCss,0-24, geomean [5]: 2.62 µM·h
- Cmax ([5]; read-out: Cmax,ss, geomean): 236 nM
- Serum phosphate concentration change from baseline, geomean (CV%) (serum phosphate [6]): 2.6 (40.4%) mg/dL
- Objective response rate (advanced malignancies; Fight-102, 1/25): 4.0%
- Disease control rate (advanced malignancies; Fight-102): 40.0%
- Serum phosphate level increase, mean (serum phosphate [7]; days 8 and 15 of cycle 1, 13.5 mg QD, 11 patients, CV% 31.3%): 2.25 mg/dL
- Serum phosphate concentration change from baseline, geomean (CV%) (serum phosphate [7]; days 8 and 15 of cycle 1, Chinese patients): 2.15 (32.9%) mg/dL
- Serum phosphate level after 1 week off (serum phosphate [7]; post 1 week off/intermission): decreased to baseline
- Serum phosphorus during subsequent treatment (serum phosphate [7]; subsequent treatment after cycle 1): remained below or near the baseline levels
- CLss/F, geometric mean [8, 11]: 11.8 L/h
- CLss/F, mean ± STD [8, 11]: 13.3 ± 7.2 L/h
- Cmin,ss, geometric mean [8, 11]: 49.8 nM
- tmax, median (min, max) [8, 11]: 1.99 (0.5, 23.2) h
- AUCss,0-24, geomean ([8]; Chinese patients, steady state, 13.5 mg QD): 2.6369 µM·h
- Cmax ([8]; Chinese patients, steady state, 13.5 mg QD, read-out: Cmax,ss, geomean): 215 nM
- AUC(0-t) ([8]; human, plasma, po, 13.5 mg, 13.5 mg oral QD, C1D1, N=12, read-out: AUC0-24, geometric mean (converted)): 2.13 µM·h
- AUC(0-t) ([8]; human, plasma, po, 13.5 mg, 13.5 mg oral QD, C1D1, N=12, read-out: AUC0-24, mean ± STD): 2.24 ± 0.861 µM·h
- Cmax ([8]; human, plasma, po, 13.5 mg, 13.5 mg oral QD, C1D1, N=12, read-out: Cmax, geometric mean (converted)): 154 nM
- Cmax ([8]; human, plasma, po, 13.5 mg, 13.5 mg oral QD, C1D1, N=12, read-out: Cmax, mean ± STD): 190 ± 108 nM
- Tmax ([8]; human, plasma, po, 13.5 mg, 13.5 mg oral QD, C1D1, N=12): ~1.52 h
- AUC ([8]; human, plasma, po, 13.5 mg, 13.5 mg oral QD, C1D14 (steady state), N=12, read-out: AUCss,0-24, geometric mean (converted)): 2.64 µM·h
- AUC ([8]; human, plasma, po, 13.5 mg, 13.5 mg oral QD, C1D14 (steady state), N=12, read-out: AUCss,0-24, mean ± STD): 2.94 ± 1.44 µM·h
- Cmax ([8]; human, plasma, po, 13.5 mg, 13.5 mg oral QD, C1D14 (steady state), N=12, read-out: Cmax,ss, geometric mean (converted)): 215 nM
- Cmax ([8]; human, plasma, po, 13.5 mg, 13.5 mg oral QD, C1D14 (steady state), N=12, read-out: Cmax,ss, mean ± STD): 246 ± 115 nM
- Vd/F ([8]; human, plasma, po, 13.5 mg, 13.5 mg oral QD, C1D14 (steady state), N=12, read-out: Vz/F, geometric mean (converted)): 170 L
- Vd/F ([8]; human, plasma, po, 13.5 mg, 13.5 mg oral QD, C1D14 (steady state), N=12, read-out: Vz/F, mean ± STD): 179 ± 60.4 L
- Tmax ([8]; human, plasma, po, 13.5 mg, 13.5 mg oral QD, C1D14 (steady state), N=12): ~1.99 h
- half-life ([8]; human, plasma, po, 13.5 mg, 13.5 mg oral QD, C1D14 (steady state), N=12, read-out: t½ (elimination half-life), geometric mean (converted)): 11.3 h
- half-life ([8]; human, plasma, po, 13.5 mg, 13.5 mg oral QD, C1D14 (steady state), N=12, read-out: t½, mean ± STD (converted)): 11.8 ± 4 h
- ORR for patients with FGFR mutations ([9]; Fight-101, 3/13): 23.1%
- ORR for patients with FGFR fusions/rearrangements ([9]; Fight-101, 5/20): 25.0%
- Disease control rate ([9]; Fight-101): 40.6%
- Objective response rate ([9]; Fight-101): 9.4%
- Incidence of hyperphosphataemia [10]: 76%
